Measurements: patent publication US8835652B2, “Delta crystalline form of the arginine salt of perindopril, a process for its preparation, and pharmaceutical compositions containing it” (Les Laboratoires Servier, priority 2012, dated 2014)
Where a name gives a salt, the structure may show the parent alone.

Assay: Thermal stability at 110° C. in an open flask (HPLC purity)
Type: physicochemical
Description: The thermal stability of the delta form at 110° C. in an open flask was compared to that of forms from the prior art.

[1] = 76 hours at 110° C., open flask
[2] = t = 0, before heating (baseline of the thermal stability test)

Structure (SMILES)	Thermal stability compared to the other known forms (110° C., open flask)	HPLC purity (%) [1] [%]	HPLC purity (%) [2] [%]
CCC[C@H](N[C@@H](C)C(=O)N1[C@H](C(=O)O)C[C@@H]2CCCC[C@@H]21)C(=O)OCC [perindopril L-arginine salt]	improved thermal stability	99.5	99.7
CCC[C@H](N[C@@H](C)C(=O)N1[C@H](C(=O)O)C[C@@H]2CCCC[C@@H]21)C(=O)OCC.N=C(N)NCCC[C@H](N)C(=O)O [Form obtained according to the process of SI 23001]	–	86.9	99.1
CCC[C@H](N[C@@H](C)C(=O)N1[C@H](C(=O)O)C[C@@H]2CCCC[C@@H]21)C(=O)OCC.N=C(N)NCCC[C@H](N)C(=O)O [β form according to EP 2 016 051]	–	98.3	99.6
CCC[C@H](N[C@@H](C)C(=O)N1[C@H](C(=O)O)C[C@@H]2CCCC[C@@H]21)C(=O)OCC.N=C(N)NCCC[C@H](N)C(=O)O [γ form according to WO 2009/157018]	–	93.4	99.7
CCC[C@H](N[C@@H](C)C(=O)N1[C@H](C(=O)O)C[C@@H]2CCCC[C@@H]21)C(=O)OCC.N=C(N)NCCC[C@H](N)C(=O)O [α form according to EP 1 989 182]	–	98.8	99.8
